Source: the supplement of paper PMC8967900

Experiments:
Experiment in all cases: selective drug sensitivity score (sDSS, relative to normal bone marrow) (sDSS (score)); higher = more potent and effective on the cell line relative to normal bone marrow cells
Settings in all cases: 72 h
ALL-PO = test system: ALL-PO
CCRF-CEM = test system: CCRF-CEM
COG-LL-332h = test system: COG-LL-332h
DND-41 = test system: DND-41
HAL-01 = test system: HAL-01
HPB-ALL = test system: HPB-ALL
KARPAS-45 = test system: KARPAS-45
KASUMI-10 = test system: KASUMI-10
KOPN-8 = test system: KOPN-8
LC4-1 = test system: LC4-1
MHH-CALL-4 = test system: MHH-CALL-4
MN-60 = test system: MN-60
MOLT-14 = test system: MOLT-14
MOLT-4 = test system: MOLT-4
NALL-1 = test system: NALL-1
NALM-6 = test system: NALM-6
P30-OHKUBO = test system: P30-OHKUBO
REH = test system: REH
RPMI-8402 = test system: RPMI-8402
TMD5 = test system: TMD5
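Also: ALL cell lines in 384-well plates, five doses spanning 10,000-fold, each plate scaled between vehicle and 100 µmol/L benzalkonium chloride controls, sDSS an adapted area-under-curve metric.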

Compound | selective drug sensitivity score (ALL-PO) | selective drug sensitivity score (CCRF-CEM) | selective drug sensitivity score (COG-LL-332h) | selective drug sensitivity score (DND-41) | selective drug sensitivity score (HAL-01) | selective drug sensitivity score (HPB-ALL) | selective drug sensitivity score (KARPAS-45) | selective drug sensitivity score (KASUMI-10) | selective drug sensitivity score (KOPN-8) | selective drug sensitivity score (LC4-1) | selective drug sensitivity score (MHH-CALL-4) | selective drug sensitivity score (MN-60) | selective drug sensitivity score (MOLT-14) | selective drug sensitivity score (MOLT-4) | selective drug sensitivity score (NALL-1) | selective drug sensitivity score (NALM-6) | selective drug sensitivity score (P30-OHKUBO) | selective drug sensitivity score (REH) | selective drug sensitivity score (RPMI-8402) | selective drug sensitivity score (TMD5)
Cn1c(=O)n(-c2ccc(C(C)(C)C#N)cc2)c2c3cc(-c4cnc5ccccc5c4)ccc3ncc21 [Dactolisib] (top concentration 1000 nM) | 4.56 | 12.9 | 5.96 | 5.66 | 9.66 | 1.36 | 6.56 | -1.04 | 15.1 | 5.16 | 4.06 | 8.66 | 0.36 | 5.76 | 3.46 | 6.36 | 14.8 | 12.9 | 7.76 | 4.46
Nc1nccc(-c2c(-c3ccc(F)cc3)ncn2C2CCCCC2)n1 (top concentration 10000 nM) | 3 | 0.7 | 3.1 | 3.3 | 1 | 0.4 | 0.6 | 2.5 | 9.2 | 3.1 | 0 | 0 | 0 | 0.4 | 0.1 | 0 | 4.3 | 0.8 | 0.6 | 1.5
CNC(=O)c1ccccc1Sc1ccc2c(/C=C/c3ccccn3)n[nH]c2c1 [Axitinib] (top concentration 10000 nM) | 9.16 | 9.26 | 13.3 | 0.16 | -0.94 | 7.56 | 6.36 | 1.86 | 6.06 | 11.8 | -2.44 | -2.94 | 8.56 | 12.2 | 5.56 | 7.86 | 12.2 | 9.36 | 6.06 | 6.76
CN(C)Cc1c(C(=O)NCCOc2ccc(C(=O)NO)cc2)oc2ccccc12 [Abexinostat] (top concentration 10000 nM) | 6.76 | 4.56 | 0.36 | 4.46 | -0.44 | 6.76 | 10.6 | 6.06 | 9.26 | 4.36 | 6.36 | -3.04 | 7.36 | 3.76 | 1.06 | 2.76 | 5.56 | 2.26 | 4.96 | 5.36
COc1ccc(-c2nc(N3CCOCC3)c3sc(CN(C)c4ncc(C(=O)NO)cn4)cc3n2)cn1 [Fimepinostat (CUDC-907)] (top concentration 10000 nM) | 6.48 | 6.88 | 1.08 | 4.68 | 0.98 | -4.02 | 9.58 | 9.18 | 10.9 | 8.68 | 9.68 | -1.22 | 9.18 | 5.28 | -3.42 | 8.68 | 8.68 | 2.78 | 5.28 | 5.18
COc1ccc(C[C@H](NC(=O)[C@H](C)NC(=O)CN2CCOCC2)C(=O)N[C@@H](Cc2ccccc2)C(=O)[C@@]2(C)CO2)cc1 [ONX-0914] (top concentration 10000 nM) | -3.9 | 3.1 | 2.2 | 11.7 | -9.3 | -2.4 | 1.8 | 0.9 | 1.5 | -1.2 | 2.9 | -2.9 | 0.5 | 1.9 | 9.8 | -1.7 | -1.8 | -1.6 | -3.1 | 0
O=C(O)c1ccc(-c2c[nH]c3ncc(-c4ccccc4)cc23)cc1C1CCCC1 (top concentration 10000 nM) | 5.86 | 3.66 | 2.86 | -1.24 | 4.26 | 0.06 | 4.36 | 5.46 | 4.16 | -0.94 | -1.44 | -1.44 | 2.46 | -0.94 | 7.66 | -1.44 | 3.36 | -1.44 | 1.66 | 1.66
Cn1ncnc1[C@H]1c2n[nH]c(=O)c3cc(F)cc(c23)N[C@@H]1c1ccc(F)cc1 [Talazoparib] (top concentration 1000 nM) | 4.78 | 5.98 | 6.58 | 3.48 | 6.58 | -4.92 | -2.12 | 3.38 | 27.5 | 3.18 | 10.2 | -4.92 | 10.5 | 9.68 | 8.78 | 3.78 | 9.68 | -3.72 | 0.58 | -1.52
COc1nc(N)nc2c1ncn2[C@@H]1O[C@H](CO)[C@@H](O)[C@@H]1O [Nelarabine] (top concentration 10000 nM) | 0.08 | 4.18 | 2.78 | 8.98 | -5.82 | -2.22 | -9.92 | -5.82 | -7.82 | -7.22 | -3.12 | -10.2 | 8.78 | -0.72 | -10.2 | -4.82 | -1.82 | -6.32 | 2.68 | -10.2
O=C(c1cccc(Cl)c1F)N1CCN(Cc2cccc(Nc3nccs3)n2)CC1 [MK-8745] (top concentration 10000 nM) | 9.9 | 12.1 | 14 | 5.5 | 7 | 7 | 23.8 | 11.2 | 13.2 | 11.5 | 4.5 | 1.6 | 7.8 | 11.8 | 12.4 | 9.6 | 9.1 | 11.6 | 9.4 | 9.4
CC(=O)c1cnc2ccc(-c3cc(Cl)c(O)c(Cl)c3)nc2c1N[C@H]1CC[C@H](CN(C)C)CC1 [OTS167] (top concentration 1000 nM) | -2.12 | 2.48 | 3.78 | -1.12 | 1.88 | -0.42 | 0.58 | 5.88 | 5.68 | -3.42 | 2.58 | -1.82 | 2.78 | -1.32 | -8.72 | -1.52 | 0.98 | 2.18 | 0.28 | -7.22
Nc1cc(F)ccc1NC(=O)/C=C/c1cnn(C/C=C/c2ccccc2)c1 [RGFP966] (top concentration 10000 nM) | 3.64 | 13.9 | 15.7 | 6.84 | 12.7 | 11 | 14.6 | 9.44 | 11.5 | 12.2 | 2.94 | 3.04 | 17.1 | 8.94 | 12.2 | 13.3 | 14 | 17.1 | 10.5 | 8.54
Cc1[nH]c2ccccc2c1CCNCc1ccc(/C=C/C(=O)NO)cc1 [Panobinostat] (top concentration 1000 nM) | 6.14 | 5.34 | 3.64 | 5.04 | -3.26 | 10.1 | 10.7 | 7.74 | 18.2 | 5.84 | 4.94 | -1.46 | 6.74 | 2.94 | -0.46 | 4.14 | 6.64 | 0.44 | 4.14 | 2.74
O=C(CCCCCCC(=O)Nc1ccccc1)NO [Vorinostat] (top concentration 10000 nM) | 10.1 | 5.9 | 3.4 | 2.2 | 0.8 | 6 | 9.9 | 4.6 | 13.4 | 8.2 | 3.9 | 0.8 | 9.6 | 5.8 | -3.5 | 2.3 | 10 | 4.5 | 8.2 | -0.1
Nc1nc2[nH]cnc2c(=S)[nH]1 [Thioguanine] (top concentration 10000 nM) | 11.2 | 15.3 | 14.5 | 13.1 | 9.44 | 11.2 | 15 | 5.24 | 13.2 | 12.4 | 4.34 | 10 | 15.7 | 14.2 | 8.64 | 10.2 | 11.6 | 10.8 | 14.9 | -3.46
Cc1ccc(NC(=O)c2ccc(CN3CCN(C)CC3)cc2)cc1Nc1nc(-c2cccnc2)cs1 [Masitinib] (top concentration 10000 nM) | -1.28 | 2.42 | 5.52 | -0.28 | 0.72 | -4.18 | 3.22 | -3.48 | -1.58 | -2.18 | -4.38 | -1.58 | 1.12 | -0.38 | -4.38 | 0.32 | 1.22 | -0.98 | 1.82 | 1.82
COc1ccc2[nH]cc(/C=C3\C(=O)Nc4ccc(NC(=O)CCN5CCCCC5)cc43)c2c1 (top concentration 50000 nM) | 5.18 | -0.02 | 4.68 | 1.38 | -3.42 | -3.32 | 7.98 | 1.78 | 1.38 | -0.42 | -1.82 | 0.28 | 0.98 | -1.12 | -2.52 | -2.12 | 0.38 | -1.62 | 2.68 | 0.28
